The source of these data is patent US20110059948A1, “QUINOLINE, NAPHTHALENE AND CONFORMATIONALLY CONSTRAINED QUINOLINE OR NAPHTHALENE DERIVATIVES AS ANTI-MYCOBACTERIAL AGENTS” (priority 2008, published 2011).

The test system of assay [1] is clinical isolate MDR (BTB 08-072). Kind of assay: microbe, parasite or virus in culture. The following applies: for MIC against MDR-TB (BTB 08-072), strain resistant to all front line drugs: agar dilution, Middlebrook 7H10; for MIC: Mycobacterium tuberculosis, read-out: MIC against MDR-TB (BTB 08-072), strain resistant to all front line drugs. Format: cell-based, Mycobacterium tuberculosis. (In general: Agar dilution tests growth on a series of plates holding different concentrations.)

For assay [2], the system named is clinical isolates resistant to one or more standard antitubercular drugs (MDR-TB strains). Kind of assay: microbe, parasite or virus in culture. Format: cell-based, Mycobacterium tuberculosis. Particulars: for MIC M. tuberculosis Resistant (n = 10): clinical isolates, n = 10 strains tested.

With `CC(c1cc(F)ccc1Oc1nc2ccc(-n3cc(-c4ccccc4)nn3)cc2cc1Cc1ccccc1)n1ccnc1` (centres unmarked) [Example 23], the “MIC against MDR-TB (BTB 08-072), strain resistant to all front line drugs” value (from here on “MIC against MDR-TB”) in assay [1] is greater than 6.25 µg/mL. Moreover, the “MIC M. tuberculosis Resistant (n = 10)” value in assay [2] is less than 6.25 µg/mL.

Consider `ON=C1c2ccccc2-c2c1c(N1CCN(c3ccccn3)CC1)nc1ccc(Br)cc21` [Example 134], for which, in assay [1], the “MIC against MDR-TB” value is greater than 6.25 µg/mL. In addition, the “MIC M. tuberculosis Resistant (n = 10)” value in assay [2] was less than 6.25 µg/mL.

Consider `CO[C@H]1/C=C/O[C@@]2(C)Oc3c(C)c(O)c4c(O)c(c(/C=N/N5CCN(C)CC5)c(O)c4c3C2=O)NC(=O)/C(C)=C\C=C\[C@H](C)[C@H](O)[C@@H](C)[C@@H](O)[C@@H](C)[C@H](OC(C)=O)[C@@H]1C` [Refampin, Rifampicin, reference compound], for which, in assay [1], the MIC is greater than 16 µg/mL.

Turning to `CC(O)c1cc(F)ccc1Oc1nc2ccc(NC(=O)Nc3cccc([N+](=O)[O-])c3)cc2cc1Cc1ccccc1` (centres unmarked) [Example 31], the “MIC against MDR-TB” value in assay [1] is greater than 6.25 µg/mL. Moreover, in assay [2], the “MIC M. tuberculosis Resistant (n = 10)” value was less than 6.25 µg/mL.

For `COc1cccc(NC(=O)Nc2ccc3nc(Oc4ccc(F)cc4C(C)O)c(Cc4ccccc4)cc3c2)c1` (centres unmarked) [Example 26], the “MIC against MDR-TB” value in assay [1] is greater than 4.0 µg/mL. Besides, the “MIC M. tuberculosis Resistant (n = 10)” value in assay [2] was less than 4.0 µg/mL.

Regarding `NNC(=O)c1ccncc1` [Isoniazid, reference compound], the MIC in assay [1] is greater than 16 µg/mL; in assay [2] (Mycobacterium tuberculosis, read-out: MIC M. tuberculosis Resistant (n = 10)), greater than 16 µg/mL.
